From US20110189347A1 (priority 2008, published 2011)
Read-outs that look alike come from different tables or passages of the source.

Assays:
[1] = Growth performance of broiler chickens, floor pen trial over five weeks (Example 6); type: in vivo; settings: for numerical improvement of weight gain compared to the control: day 1 to day 36
Description: The objective of the present trial (Trial A) was to evaluate the effects of sucinic acid on the growth performance of broiler chickens in a floor pen trial over five weeks. Succinic acid was supplemented at four different dose levels. […] Each group was placed in one floor pen littered with wood shavings and allocated to one of the different treatments. Each treatment was replicated with 4 groups per sex. Birds had ad libitum access to feed and tap water. […] Chickens received diets based on soybean meal, and wheat as main ingredients (Table 6). […] The target quantities of succinic acid were added on top to the feed, mixed with appropriate amounts of maize starch as a carrier: […] For the statistical evaluation of the data, a one-factorial analysis of variance for each diet (factor: treatment) was carried out. Where significant treatment effects (p<0.05) were indicated, the differences among treatment means were subsequently analyzed with the Newman-Keuls test.

[2] = for Daily feed intake / Live weight of piglets: dietary inclusion 1.0%
[3] = system: commensal Escherichia coli; assay: microbe, parasite or virus in culture
[4] = system: Salmonella enterica subsp enterica serovar Enteritidis; assay: microbe, parasite or virus in culture
[5] = system: Salmonella enterica subsp enterica serovar Typhimurium; assay: microbe, parasite or virus in culture
[6] = 0.5% in diet, 29 days
[7] = system: Clostridium perfringens; assay: microbe, parasite or virus in culture; type: cell-based
[8] = system: Enterococcus faecalis; assay: microbe, parasite or virus in culture

COC[C@H]1O[C@@H](OC2OC[C@@H]3O[C@]4(O[C@H]3[C@H]2OC(=O)C(C)C)O[C@H](C)[C@@](O)(C(C)=O)[C@@H]2OCO[C@H]24)[C@@H](OC)[C@@H](O)[C@@H]1O[C@@H]1O[C@H](C)[C@H](OC)[C@H](O[C@H]2C[C@@]3(C)OC4(C[C@@H](O)[C@H](O[C@H]5C[C@@H](O)[C@H](OC(=O)c6c(C)c(Cl)c(O)c(Cl)c6OC)[C@@H](C)O5)[C@@H](C)O4)O[C@@H]3[C@@H](C)O2)[C@H]1O (stereo partly drawn) [Avilamycin, reference compound]
Feed conversion ([1]; Day 1-22, 10 mg/kg feed): 1.462^A g feed/g gain
Feed conversion, relative to control (100) ([1]; Day 1-22, 10 mg/kg feed): 101.0
Feed intake ([1]; Day 1-22, 10 mg/kg feed): 1450^A g
Weight gain ([1]; Day 1-22, 10 mg/kg feed): 992^BC g
Weight gain, relative to control (100) ([1]; Day 1-22, 10 mg/kg feed): 104.1
Feed conversion ([1]; Day 1-36, 10 mg/kg feed): 1.638^A g feed/g gain
Feed conversion, relative to control (100) ([1]; Day 1-36, 10 mg/kg feed): 100.9
Feed intake ([1]; Day 1-36, 10 mg/kg feed): 3860^A g
Weight gain ([1]; Day 1-36, 10 mg/kg feed): 2359^A g
Weight gain, relative to control (100) ([1]; Day 1-36, 10 mg/kg feed): 102.5
Feed conversion ([1]; Day 22-36, 10 mg/kg feed): 1.769^A g feed/g gain
Feed conversion, relative to control (100) ([1]; Day 22-36, 10 mg/kg feed): 101.1
Feed intake ([1]; Day 22-36, 10 mg/kg feed): 2412^A g
Weight gain ([1]; Day 22-36, 10 mg/kg feed): 1366^A g
Weight gain, relative to control (100) ([1]; Day 22-36, 10 mg/kg feed): 101.4

O=C(O)CCC(=O)O [Succinic acid, succinic acid]
Daily feed intake ([2]; Day 0-14): 368 g
Daily feed intake ([2]; Day 14-24): 649 g
Live weight of piglets ([2]; Day 14): 12.01 kg
Daily feed intake ([2]; Day 24-36): 869 g
Live weight of piglets ([2]; Day 24): 16.90 kg
Live weight of piglets ([2]; Final, day 36): 24.32 kg
Live weight of piglets ([2]; Initial, day 0): 8.51 kg
Daily feed intake ([2]; Overall, day 0-36): 613 g
reduction of feed intake versus control ([2]; day 0-14, dietary level of 1.0%): −25.4%
MIC90 [3]: < 31.2 mM
Feed conversion ([1]; Day 1-22, 2.5 g/kg feed): 1.365^B g feed/g gain
Feed intake ([1]; Day 1-22, 2.5 g/kg feed): 1427^A g
Weight gain ([1]; Day 1-22, 2.5 g/kg feed): 1046^A g
Feed conversion ([1]; Day 1-22, 5 g/kg feed): 1.461^A g feed/g gain
Feed intake ([1]; Day 1-22, 5 g/kg feed): 1446^A g
Weight gain ([1]; Day 1-22, 5 g/kg feed): 991^BC g
Feed conversion ([1]; Day 1-22, 7.5 g/kg feed): 1.372^B g feed/g gain
Feed intake ([1]; Day 1-22, 7.5 g/kg feed): 1445^A g
Weight gain ([1]; Day 1-22, 7.5 g/kg feed): 1054^A g
Feed conversion ([1]; Day 1-22, 10 g/kg feed): 1.381^B g feed/g gain
Feed intake ([1]; Day 1-22, 10 g/kg feed): 1430^A g
Weight gain ([1]; Day 1-22, 10 g/kg feed): 1036^AB g
Feed conversion ([1]; Day 1-36, 2.5 g/kg feed): 1.602^A g feed/g gain
Feed intake ([1]; Day 1-36, 2.5 g/kg feed): 3817^A g
Weight gain ([1]; Day 1-36, 2.5 g/kg feed): 2383^A g
Feed conversion ([1]; Day 1-36, 5 g/kg feed): 1.642^A g feed/g gain
Feed intake ([1]; Day 1-36, 5 g/kg feed): 3793^A g
Weight gain ([1]; Day 1-36, 5 g/kg feed): 2311^A g
Feed conversion ([1]; Day 1-36, 7.5 g/kg feed): 1.612^A g feed/g gain
Feed intake ([1]; Day 1-36, 7.5 g/kg feed): 3870^A g
Weight gain ([1]; Day 1-36, 7.5 g/kg feed): 2404^A g
Feed conversion ([1]; Day 1-36, 10 g/kg feed): 1.651^A g feed/g gain
Feed intake ([1]; Day 1-36, 10 g/kg feed): 3868^A g
Weight gain ([1]; Day 1-36, 10 g/kg feed): 2347^A g
Feed conversion ([1]; Day 22-36, 2.5 g/kg feed): 1.790^A g feed/g gain
Feed intake ([1]; Day 22-36, 2.5 g/kg feed): 2392^A g
Weight gain ([1]; Day 22-36, 2.5 g/kg feed): 1337^A g
Feed conversion ([1]; Day 22-36, 5 g/kg feed): 1.786^A g feed/g gain
Feed intake ([1]; Day 22-36, 5 g/kg feed): 2347^A g
Weight gain ([1]; Day 22-36, 5 g/kg feed): 1320^A g
Feed conversion ([1]; Day 22-36, 7.5 g/kg feed): 1.806^A g feed/g gain
Feed intake ([1]; Day 22-36, 7.5 g/kg feed): 2431^A g
Weight gain ([1]; Day 22-36, 7.5 g/kg feed): 1350^A g
Feed conversion ([1]; Day 22-36, 10 g/kg feed): 1.870^A g feed/g gain
Feed intake ([1]; Day 22-36, 10 g/kg feed): 2442^A g
Weight gain ([1]; Day 22-36, 10 g/kg feed): 1311^A g
numerical improvement of weight gain compared to the control ([1]; 2.5 g per kg feed): 3.6%
numerical improvement of weight gain compared to the control ([1]; 7.5 g per kg feed): 4.5%
improvement of weight gain compared to the control ([1]; starter period (day 1-22), across the different inclusion levels): 3.9% to 10.5
MIC90 [4]: < 31.2 mM
MIC90 [5]: < 31.2 mM
DWG numerically higher than control group [6]: 5%
Weight gain ([6]; group B, n = 24): 6.57 ± 1.91 kg
MIC90 [7]: < 31.2 mM
MIC90 [8]: < 31.2 mM

O=C(O)CC(O)(CC(=O)O)C(=O)O [citric acid, reference compound]
MIC90 [3]: < 31.2 mM
MIC90 [4]: < 31.2 mM
MIC90 [5]: < 31.2 mM
MIC90 [7]: < 31.2 mM
MIC90 [8]: < 31.2 mM
